{
  "source": "patent US20230390319A1",
  "about": "“INTERFERON GENE STIMULATOR COMPOSITION COMPRISING INDOLIZINE DERIVATIVE AS ACTIVE INGREDIENT” (AJOU UNIVERSITY INDUSTRY-ACADEMIC COOPERATION FOUNDATION, priority 2020, published 2023)",
  "key": {"STING KO cell line": {"test_system": "STING KO cell line", "assay": "ISRE reporter assay in THP-1 STING KO cell line", "format": "cell-based, Human", "conditions": "co-treatment with cGAMP, FIG. 1", "description": "(§1) Human monocytic THP-1 wild-type (WT) and STING knockout (KO) cell lines were obtained from InvivoGen. Cells were cultured in 1×RPMI 1640 medium containing 10% fetal bovine serum (FBS, Hyclone), 2.05 mM L-glutamine (Hyclone) and 1% penicillin (Corning) in a humidified incubator at 37° C. under 5% CO2.\n(§2) To confirm immune responses, THP-1 cells were placed in 384-well plates (Grenier), and treated with each compound and cGAMP (1 μg/ml), and after 24 hours, ISRE activity was analyzed. QUANTI-Luc assay (InvivoGen) was performed using the cell culture supernatant to confirm the luciferase reporter gene signal. Fluorescent signals were measured using a TECAN micro plate reader SPARK, and the results were normalized to DMSO control."}, "ISRE reporter signal": {"test_system": "ISRE reporter signal", "assay": "ISRE luciferase reporter assay, THP-1 cells co-treated with compound and cGAMP", "format": "cell-based, Human", "description": "as §1, §2\n(§3) THP-1 cells were co-treated with each of 86 indolizine derivatives and a very small amount of cGAMP (1 μg/ml), the immune response of the THP-1 cells was examined by ISRE reporter assay, and the cytotoxicity of co-treatment was also evaluated (Table 1). All results were compared by normalization to the reporter assay results obtained by treatment with cGAMP alone. […] Thus, Compound 42 was used in subsequent experiments."}, "THP-1 cells": {"test_system": "THP-1 cells", "assay": "Cell viability assay (CellTiter Clo) in THP-1 cells", "format": "cell-based, Human", "description": "as §1\nCells were analyzed using CellTiter Clo (CTG, Promega). […] was measured using a TECAN micro plate reader SPARK. Results were normalized to DMSO control.\nas §3"}, "[1]": {"assay": "PK profiles after IV and PO administration to BALB/c mice", "format": "in vivo", "conditions": "BALB/c, mouse, blood; for concentration at 0.5 h: 0.50 h; for AUC(0-t): read-out: AUClast AUC(0-t); for C0: read-out: C0; for Cmax: read-out: Cmax; for MRT inf: read-out: MRTINF_obs MRT(0-∞); for MRT last: read-out: MRTlast MRT(0-t)", "source_text": "The pharmacokinetics and oral bioavailability of Compound 42 were investigated in mice following single intravenous (IV) injection and oral administration (PO)."}, "[2]": {"conditions": "iv, 5 mg/kg, IV 5 mg/kg, individual animals 101-103, read-out: concentration in blood"}, "[3]": {"conditions": "iv, 5 mg/kg, IV 5 mg/kg, mean, read-out: concentration in blood, Mean IV"}, "[4]": {"conditions": "iv, 5 mg/kg, IV 5.0 mg/kg, individual animals"}, "[5]": {"conditions": "iv, 5 mg/kg, IV 5.0 mg/kg, mean n=3"}, "[6]": {"conditions": "po, 20 mg/kg, PO 20 mg/kg, individual animals 201-203, read-out: concentration in blood"}, "[7]": {"conditions": "po, 20 mg/kg, PO 20 mg/kg, mean, read-out: concentration in blood, Mean PO"}},
  "note": "Entries after “also recorded” stand apart in the source; their conditions may differ. Read-outs that look alike come from different tables or passages of the source.",
  "data": [
    {"smiles": "CC(=O)c1ccc(-c2cc(C(=O)c3ccc(C(F)(F)F)cc3)n3ccccc23)cc1", "note": "[Compound 42]", "values": [
      {"measurement": "ISRE reporter effect in STING KO cell line", "setting": "STING KO cell line", "result": "no effect"},
      {"measurement": "ISRE reporter effect in WT cell line", "setting": "ISRE reporter signal; THP-1 WT, co-treatment with cGAMP, FIG. 1", "result": "increased effect"},
      {"measurement": "Normalized RU (relative unit of ISRE reporter signal)", "setting": "ISRE reporter signal; THP-1 cells, 20 μM of each compound, co-treated with cGAMP (1 μg/ml), 24 hours", "result": 9.32},
      {"measurement": "efficacy in ISRE reporter assay", "setting": "ISRE reporter signal; co-administered with cGAMP, among 86 indolizine derivatives", "result": "highest efficacy"},
      {"measurement": "Normalized cell viability", "setting": "THP-1 cells; THP-1 cells, 20 μM of each compound, co-treated with cGAMP (1 μg/ml)", "result": 1.20},
      {"measurement": "cytotoxicity of co-treatment", "setting": "THP-1 cells; co-treatment with cGAMP", "result": "no cytotoxicity; also recorded: did not cause toxicity"},
      {"measurement": "bioavailability", "setting": "[1]; 20 mg/kg, PO administration of 20 mpk", "result": "~18", "unit": "%"},
      {"measurement": "concentration at 0.083 h", "setting": "[1]; [2]", "result": 2590, "unit": "ng/mL"},
      {"measurement": "concentration at 0.083 h", "setting": "[1]; [3]", "result": 2750, "unit": "ng/mL"},
      {"measurement": "concentration at 0.25 h", "setting": "[1]; [2]", "result": 1520, "unit": "ng/mL"},
      {"measurement": "concentration at 0.25 h", "setting": "[1]; [3]", "result": 1420, "unit": "ng/mL"},
      {"measurement": "concentration at 0.5 h", "setting": "[1]; [2]", "result": 803, "unit": "ng/mL"},
      {"measurement": "concentration at 0.5 h", "setting": "[1]; [3]", "result": 820, "unit": "ng/mL"},
      {"measurement": "concentration at 1 h", "setting": "[1]; [2]", "result": 379, "unit": "ng/mL"},
      {"measurement": "concentration at 1 h", "setting": "[1]; [3]", "result": 350, "unit": "ng/mL"},
      {"measurement": "concentration at 4 h", "setting": "[1]; [2]", "result": 97.9, "unit": "ng/mL"},
      {"measurement": "concentration at 4 h", "setting": "[1]; [3]", "result": 107, "unit": "ng/mL"},
      {"measurement": "concentration at 24 h", "setting": "[1]; [2]", "result": 29.2, "unit": "ng/mL"},
      {"measurement": "concentration at 24 h", "setting": "[1]; [3]", "result": 34.9, "unit": "ng/mL"},
      {"measurement": "AUC(0-inf)", "setting": "[1]; iv, 5 mg/kg, IV 5.0 mg/kg, individual animals, read-out: AUCINF_obs AUC(0-∞)", "result": 3420, "unit": "ng·h/mL"},
      {"measurement": "AUC(0-t)", "setting": "[1]; [4]", "result": 3160, "unit": "ng·h/mL"},
      {"measurement": "C0", "setting": "[1]; [4]", "result": 3380, "unit": "ng/mL"},
      {"measurement": "clearance", "setting": "[1]; iv, 5 mg/kg, IV 5.0 mg/kg, individual animals, read-out: Cl_obs Cl (converted)", "result": 24.4, "unit": "mL/min/kg"},
      {"measurement": "Cmax", "setting": "[1]; [4]", "result": 2590, "unit": "ng/mL"},
      {"measurement": "half-life", "setting": "[1]; iv, 5 mg/kg, IV 5.0 mg/kg, individual animals, read-out: HL_Lambda_z T1/2 (converted)", "result": 6.03, "unit": "h"},
      {"measurement": "MRT inf", "setting": "[1]; [4]", "result": 6.07, "unit": "h"},
      {"measurement": "MRT last", "setting": "[1]; [4]", "result": 3.93, "unit": "h"},
      {"measurement": "Vd", "setting": "[1]; iv, 5 mg/kg, IV 5.0 mg/kg, individual animals, read-out: Vss_obs Vss", "result": 8.88, "unit": "L/kg"},
      {"measurement": "Vd", "setting": "[1]; iv, 5 mg/kg, IV 5.0 mg/kg, individual animals, read-out: Vz_obs Vz", "result": 12.7, "unit": "L/kg"},
      {"measurement": "AUC(0-inf)", "setting": "[1]; iv, 5 mg/kg, IV 5.0 mg/kg, mean n=3, read-out: AUCINF_obs AUC(0-∞)", "result": 3700, "unit": "ng·h/mL"},
      {"measurement": "AUC(0-t)", "setting": "[1]; [5]", "result": 3300, "unit": "ng·h/mL"},
      {"measurement": "C0", "setting": "[1]; [5]", "result": 3830, "unit": "ng/mL"},
      {"measurement": "clearance", "setting": "[1]; iv, 5 mg/kg, IV 5.0 mg/kg, mean n=3, read-out: Cl_obs Cl (converted)", "result": 22.7, "unit": "mL/min/kg"},
      {"measurement": "Cmax", "setting": "[1]; [5]", "result": 2750, "unit": "ng/mL"},
      {"measurement": "half-life", "setting": "[1]; iv, 5 mg/kg, IV 5.0 mg/kg, mean n=3, read-out: HL_Lambda_z T1/2 (converted)", "result": 7.76, "unit": "h"},
      {"measurement": "MRT inf", "setting": "[1]; [5]", "result": 7.6, "unit": "h"},
      {"measurement": "MRT last", "setting": "[1]; [5]", "result": 4.27, "unit": "h"},
      {"measurement": "Vd", "setting": "[1]; iv, 5 mg/kg, IV 5.0 mg/kg, mean n=3, read-out: Vss_obs Vss", "result": 10.2, "unit": "L/kg"},
      {"measurement": "Vd", "setting": "[1]; iv, 5 mg/kg, IV 5.0 mg/kg, mean n=3, read-out: Vz_obs Vz", "result": 15, "unit": "L/kg"},
      {"measurement": "AUC(0-inf)", "setting": "[1]; iv, 5 mg/kg, IV administration of 5 mg/kg (mpk), read-out: AUC∞", "result": 3700, "unit": "ng·h/mL"},
      {"measurement": "Cmax", "setting": "[1]; iv, 5 mg/kg, IV administration of 5 mg/kg (mpk)", "result": 2750, "unit": "ng/mL"},
      {"measurement": "half-life", "setting": "[1]; iv, 5 mg/kg, IV administration of 5 mg/kg (mpk), read-out: half-life (converted)", "result": "~7.76", "unit": "h"},
      {"measurement": "clearance", "setting": "[1]; iv, 5 mg/kg, IV administration, read-out: mean blood clearance", "result": 22.7, "unit": "mL/min/kg"},
      {"measurement": "Vd", "setting": "[1]; iv, 5 mg/kg, IV administration, read-out: mean volume of distribution at steady state (Vss)", "result": 10.2, "unit": "L/kg"},
      {"measurement": "concentration at 0.25 h", "setting": "[1]; [6]", "result": 75.3, "unit": "ng/mL"},
      {"measurement": "concentration at 0.25 h", "setting": "[1]; [7]", "result": 89.9, "unit": "ng/mL"},
      {"measurement": "concentration at 0.5 h", "setting": "[1]; [6]", "result": 139, "unit": "ng/mL"},
      {"measurement": "concentration at 0.5 h", "setting": "[1]; [7]", "result": 156, "unit": "ng/mL"},
      {"measurement": "concentration at 1 h", "setting": "[1]; [6]", "result": 211, "unit": "ng/mL"},
      {"measurement": "concentration at 1 h", "setting": "[1]; [7]", "result": 225, "unit": "ng/mL"},
      {"measurement": "concentration at 3 h", "setting": "[1]; [6]", "result": 149, "unit": "ng/mL"},
      {"measurement": "concentration at 3 h", "setting": "[1]; [7]", "result": 161, "unit": "ng/mL"}
    ]}
  ]
}
